Values quoted from earlier work as cited in US11045550B2, “Use of an amino sugar as plasticizer” (Merck Patent GmbH, priority 2016, dated 2021).

Experiments:
[1] = at 144° C., literature data

CCC(C)n1ncn(-c2ccc(N3CCN(c4ccc(OCC5COC(Cn6cncn6)(c6ccc(Cl)cc6Cl)O5)cc4)CC3)cc2)c1=O (stereo not shown) [Itraconazole]
pKa (strongest basic): 3.92

CCCc1nc2c(C)cc(-c3nc4ccccc4n3C)cc2n1Cc1ccc(-c2ccccc2C(=O)O)cc1 [Telmisartan]
pKa (strongest acidic): 3.65

CC(C)Cc1ccc(C(C)C(=O)O)cc1 (stereo not shown) [Ibuprofen]
Ibuprofen degraded when processed by HME [1]: 11.6%

CNC[C@@H](O)[C@@H](O)[C@H](O)[C@H](O)CO [Meglumine, D-(−)-N-Methylglucamine]
pKa value: 9.60
